The values that follow are results of earlier work, collected in patent US7141382B1, “Methods for detection of IL-18 as an early marker for diagnosis of acute renal failure and predictor of mortality” (priority 2004, dated 2006).

The subject of the series is freshly isolated proximal tubules from C57BL/6 mice. Particulars: P<0.01 vs. hypoxia, n=6.

Where two headings read alike, the source gives them in different places.

Regarding `CC(C)[C@H](NC(=O)c1ccc2ccccc2n1)C(=O)N[C@@H](CC(=O)O)C(=O)COc1c(F)cccc1F` [OPH-001], the LDH release (25 minutes of hypoxic injury, hypoxic tubules preincubated with OPH-001 (100 μM), normoxic 11%±1%, vehicle (DMSO) 38%±6%) is recorded as 22%±1%.
As to “recombinant IL-18: exogenous recombinant IL-18 added to the proximal tubule suspension”, the LDH release (sublethal (12 minutes) hypoxia, tubules preincubated with recombinant IL-18 (1 μg per 6 ml of tubule suspension), normoxic 10%±1%, vehicle (saline) 13%±1%) is 18%±1%.
